Experimental data taken from patent US11738022B2, “Methods for inducing pupil dilation” (THE REGENTS OF THE UNIVERSITY OF COLORADO, A BODY CORPORATE, priority 2017, dated 2023).
Structures can show the parent of a compound that is named as a salt.

Experiments:
α receptors (α2:α1) = details: affinity ratio; cited from earlier work
pupil = assay: Pupil dilation measured with Neuroptics pupillometer after α-2 agonist pre-treatment and/or phenylephrine; format: in vivo, human; details: for Pupil size, Treated eye / Surgical Work area, Treated eye / Pupil size, Non-treated eye / Surgical Work area, Non-treated eye: photopic conditions (1258.925 lux) after dilation with phenylephrine 10%; for Pupil size, Non-treated eye / Surgical Work area, Non-treated eye: eye without pre-treatment
Procedure: Dilation medication used was Phenylephrine hydrochloride 10% (Akorn, Inc). Pupillometer used was a Neuroptics DP-2000 Binocular Pupillometer).
Dilation using phenylephrine hydrochloride 10% was conducted in both eyes of the test subject to use as a control against the other compounds being tested.
After this, dilation using phenylephrine hydrochloride 2.5% or phenylephrine hydrochloride 10% was conducted to investigate the effects of the compound on pupil dilation.
Apracionidine 0.5% was administered in the right eye of the test subject three (3) times a day for 4 days. After this, dilation using phenylephrine hydrochloride 10% was conducted to investigate the effects of the compound on pupil dilation.
After this, dilation using phenylephrine hydrochloride 10% was conducted to investigate the effects of the compound on pupil dilation.
A washout period of multiple months was undertaken in between each experiment.
Pupil measurements were obtained using a Neuroptics pupillometer. Parameters were as follows: Scotopic conditions for 1 second, followed by photopic conditions for 4 seconds (1258.925 lux), followed by scotopic conditions for 10 seconds. This allowed for investigation of scotopic pupil size, photopic pupil size, and scotopic pupil size recovery after the light stimulus concluded.
The pupils of the subject's pretreated right eye and untreated control left eye were then measured under both scotopic and photopic conditions for baseline measurements (FIG. 6A). Photopic conditions consisted of a 4 second window where a light was shining in both eyes simultaneously. […]
The experiment was repeated at a higher dosage wherein the subject was administered a second ophthalmic formulation containing 10% phenylephrine to both eyes. 30 minutes after instillation of 10% phenylephrine, the pupils of the subject were then measured under both scotopic and photopic conditions (FIG. 6C). […] Because the area of a circle is dependent on the radius squared (area of a circle=πr^2), the increase in area that is created from a increasing the pupil dilation size is not linear.
The results were then compared.

[1] = after pre-treatment of right eye only, 3 times a day for 4 days, before phenylephrine
[2] = after pre-treatment of right eye only, 3 times a day for 4 days, before phenylephrine, left eye not treated
[3] = dilation pre and post treatment with α 2 agonist: treated eye vs control measurements of same eye
[4] = non-treated eye dilation compared to treated eye dilation
[5] = right eye pre-treated 3 times a day for 4 days, then phenylephrine 10% both eyes
[6] = right eye pre-treated 3 times a day for 4 days, then phenylephrine 10% both eyes, left eye not pre-treated
[7] = phenylephrine hydrochloride 10% both eyes, no pre-treatment (FIG. 5B)

For `Nc1cc(Cl)c(N=C2NCCN2)c(Cl)c1` [Apraclonidine, apraclonidine], the “α2:α1 affinity” value (α receptors (α2:α1)) is listed as 150, the “effect of pre-treatment on dilation” value (pupil; after dilation with phenylephrine hydrochloride 10%) is listed as “hindered dilation” and the “CH LStim Ave” value (pupil; [1]) is listed as 62%. The “CH RPupil Ave” value (pupil; [1]) was 61%, the “CH RStim Ave” value (pupil; [1]) was 62% and the “CH Right” value (pupil; [1]) was 61%. For the same compound, the “CLAT LStim Ave” value (pupil; [1]) was 0.21 s, the “CLAT RPupil Ave” value (pupil; [1]) was 0.21 s and the “CLAT RStim Ave” value (pupil; [1]) was 0.21 s. The “CLAT Right” value (pupil; [1]) was 0.21 s, the “DELTA LStim Ave” value (pupil; [1]) was 4.25 mm and the “DELTA RPupil Ave” value (pupil; [1]) was 4.20 mm. The “DELTA RStim Ave” value (pupil; [1]) was 4.25 mm, the “DV LStim Ave” value (pupil; [1]) was 1.08 mm/s and the “DV RPupil Ave” value (pupil; [1]) was 1.19 mm/s. The “DV RStim Ave” value (pupil; [1]) was 1.08 mm/s, the “DV Right” value (pupil; [1]) was 1.19 mm/s and the “MCV LStim Ave” value (pupil; [1]) was 5.93 mm/s. The “MCV RPupil Ave” value (pupil; [1]) was 6.01 mm/s, the “MCV RStim Ave” value (pupil; [1]) was 5.93 mm/s and the “Max LStim Ave” value (pupil; [1]) was 6.87 mm. The “Max RStim Ave” value (pupil; [1]) was 6.87 mm, the “Max Right” value (pupil; [1]) was 6.91 mm and the “Min LStim Ave” value (pupil; [1]) was 2.62 mm. For the same compound, the “Min RPupil Ave” value (pupil; [1]) was 2.71 mm, the “Min RStim Ave” value (pupil; [1]) was 2.62 mm and the “Min Right” value (pupil; [1]) was 2.71 mm. For the same compound, the “CH LPupil Ave” value (pupil; [2]) was 63%, the “CH Left” value (pupil; [2]) was 63% and the “CLAT LPupil Ave” value (pupil; [2]) was 0.21 s. For the same compound, the “CLAT Left” value (pupil; [2]) was 0.21 s, the “DELTA Left” value (pupil; [2]) was 4.28 mm and the “DV Left” value (pupil; [2]) was 0.97 mm/s. For the same compound, the “MCV Left” value (pupil; [2]) was 5.85 mm/s, the “Max Left” value (pupil; [2]) was 6.82 mm and the “Min Left” value (pupil; [2]) was 2.54 mm. For the same compound, the “Pupil size change (%)” value (pupil; [3]) was −17.83%, the “Surgical work area change (%)” value (pupil; [3]) was −32.48% and the “Pupil size change (%)” value (pupil; [4]) was −40.4%. For the same compound, the “Surgical work area (%)” value (pupil; [4]) was −64.48%, the “Pupil size, Treated eye” value (pupil) was 2.95 mm and the “Surgical Work area, Treated eye” value (pupil) was 6.831 mm^2. The “Pupil size, Non-treated eye” value (pupil) was 4.95 mm, the “Surgical Work area, Non-treated eye” value (pupil) was 19.23 mm^2 and the “CH LStim Ave” value (pupil; [5]) was 54%. For the same compound, the “CH RPupil Ave” value (pupil; [5]) was 62%, the “CH RStim Ave” value (pupil; [5]) was 54% and the “CH Right” value (pupil; [5]) was 62%. The “CLAT LStim Ave” value (pupil; [5]) was 0.22 s, the “CLAT RPupil Ave” value (pupil; [5]) was 0.21 s and the “CLAT RStim Ave” value (pupil; [5]) was 0.22 s. The “CLAT Right” value (pupil; [5]) was 0.21 s, the “DELTA LStim Ave” value (pupil; [5]) was 4.59 mm and the “DELTA RPupil Ave” value (pupil; [5]) was 4.88 mm. For the same compound, the “DELTA RStim Ave” value (pupil; [5]) was 4.59 mm, the “DV LStim Ave” value (pupil; [5]) was 1.21 mm/s and the “DV RPupil Ave” value (pupil; [5]) was 1.18 mm/s. For the same compound, the “DV RStim Ave” value (pupil; [5]) was 1.21 mm/s, the “DV Right” value (pupil; [5]) was 1.18 mm/s and the “MCV LStim Ave” value (pupil; [5]) was 3.80 mm/s. The “MCV RPupil Ave” value (pupil; [5]) was 5.03 mm/s, the “MCV RStim Ave” value (pupil; [5]) was 3.80 mm/s and the “Max LStim Ave” value (pupil; [5]) was 8.54 mm. The “Max RStim Ave” value (pupil; [5]) was 8.54 mm, the “Max Right” value (pupil; [5]) was 7.83 mm and the “Min LStim Ave” value (pupil; [5]) was 3.95 mm. The “Min RPupil Ave” value (pupil; [5]) was 2.95 mm, the “Min RStim Ave” value (pupil; [5]) was 3.95 mm and the “Min Right” value (pupil; [5]) was 2.95 mm. The “CH LPupil Ave” value (pupil; [6]) was 46%, the “CH Left” value (pupil; [6]) was 46% and the “CLAT LPupil Ave” value (pupil; [6]) was 0.23 s. The “CLAT Left” value (pupil; [6]) was 0.23 s, the “DELTA Left” value (pupil; [6]) was 4.30 mm and the “DV Left” value (pupil; [6]) was 1.24 mm/s. The “MCV Left” value (pupil; [6]) was 2.58 mm/s, the “Max Left” value (pupil; [6]) was 9.25 mm and the “Min Left” value (pupil; [6]) was 4.95 mm.

For `CNC[C@H](O)c1cccc(O)c1` [Phenylephrine hydrochloride 10%, phenylephrine], the “CH LPupil Ave” value (pupil; [7]) was 58%, the “CH LStim Ave” value (pupil; [7]) was 57% and the “CH Left” value (pupil; [7]) was 58%. For the same compound, the “CH RPupil Ave” value (pupil; [7]) was 56%, the “CH RStim Ave” value (pupil; [7]) was 57% and the “CH Right” value (pupil; [7]) was 56%. For the same compound, the “CLAT LPupil Ave” value (pupil; [7]) was 0.24 s, the “CLAT LStim Ave” value (pupil; [7]) was 0.22 s and the “CLAT Left” value (pupil; [7]) was 0.24 s. The “CLAT RPupil Ave” value (pupil; [7]) was 0.20 s, the “CLAT RStim Ave” value (pupil; [7]) was 0.22 s and the “CLAT Right” value (pupil; [7]) was 0.20 s. The “DELTA LStim Ave” value (pupil; [7]) was 4.63 mm, the “DELTA Left” value (pupil; [7]) was 4.65 mm and the “DELTA RPupil Ave” value (pupil; [7]) was 4.62 mm. The “DELTA RStim Ave” value (pupil; [7]) was 4.63 mm, the “DV LStim Ave” value (pupil; [7]) was 1.43 mm/s and the “DV Left” value (pupil; [7]) was 1.40 mm/s. The “DV RPupil Ave” value (pupil; [7]) was 1.45 mm/s, the “DV RStim Ave” value (pupil; [7]) was 1.43 mm/s and the “DV Right” value (pupil; [7]) was 1.45 mm/s. For the same compound, the “MCV LStim Ave” value (pupil; [7]) was 4.62 mm/s, the “MCV Left” value (pupil; [7]) was 4.78 mm/s and the “MCV RPupil Ave” value (pupil; [7]) was 4.46 mm/s. For the same compound, the “MCV RStim Ave” value (pupil; [7]) was 4.62 mm/s, the “Max LStim Ave” value (pupil; [7]) was 8.11 mm and the “Max Left” value (pupil; [7]) was 8.01 mm. The “Max RStim Ave” value (pupil; [7]) was 8.11 mm, the “Max Right” value (pupil; [7]) was 8.21 mm and the “Min LStim Ave” value (pupil; [7]) was 3.48 mm. For the same compound, the “Min Left” value (pupil; [7]) was 3.36 mm, the “Min RPupil Ave” value (pupil; [7]) was 3.59 mm and the “Min RStim Ave” value (pupil; [7]) was 3.48 mm. For the same compound, the “Min Right” value (pupil; [7]) was 3.59 mm, the “Pupil size, Treated eye” value (pupil) was 3.59 mm and the “Surgical Work area, Treated eye” value (pupil) was 10.12 mm^2. For the same compound, the “Pupil size, Non-treated eye” value (pupil) was 3.36 mm and the “Surgical Work area, Non-treated eye” value (pupil) was 8.862 mm^2.
